Measured values taken from ChEMBL document CHEMBL1142806, “Synthesis and assay of isoquinoline derivatives as HIV-1 Tat-TAR interaction inhibitors” (Bioorg Med Chem Lett, 2005).

Key:
[1] = Binding constant to TAR at 0.357e-4 M concentration
[2] = Percent inhibition of SIV-induced syncytium in CEM174 cells; type: functional
[3] = Effective concentration required to inhibit SIV induced syncytium in CEM174 cells; type: functional, cell-based
[4] = Binding constant to TAR at 1.107e-4 M concentration
[5] = Binding constant to TAR at 0.393e-4 M concentration
[6] = Binding constant to TAR at 0.814e-4 M concentration

N=C(N)NCCNC(=O)c1cc2ccccc2cn1.O=S(O)O
K [1]: 207000
Inhibition [2]: 56.2%
EC50 [3]: 6.86 µM

NCCCNC(=O)c1cc2ccccc2cn1
K [4]: 15400
Inhibition [2]: 58.7%
EC50 [3]: 8.74 µM

N=C(N)NCCCNC(=O)c1cc2ccccc2cn1.O=S(O)O
K [5]: 169000
Inhibition [2]: 60.7%
EC50 [3]: 3.92 µM

NCCNC(=O)c1cc2ccccc2cn1
K [6]: 33000
Inhibition [2]: 44.2%
EC50 [3]: 12.9 µM
